Test results as given in patent US20230416262A1, “TRPML MODULATORS” (Casma Therapeutics, Inc., priority 2020, published 2023).
pEC50: −log10 of the molar value.

Tests used:
[1] = test system: TFEB; experiment: TFEB nuclear translocation assay; assay type: cell-based; conditions: Homo sapiens; HeLa wt or HeLa TRPML1 KO cells, treated for 2 hrs; ratio of nuclear to ring-region TFEB intensity
Procedure, shortened: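 HeLa wild-type or TRPML1 KO cells treated 2 h with compound at 37 °C, PFA-fixed, immunostained for TFEB (Alexa 488) with Hoechst nuclei. Imaged at ×20, four fields/well. Value is ratio of nuclear to perinuclear-ring TFEB intensity, with nuclei counts.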

[2] = test system: THP-1 cells; experiment: Lamp1 lysosomal exocytosis assay; assay type: cell-based; conditions: Homo sapiens, 55 min, 55 min incubation, top dose 20 μM
Procedure: For the Lamp1 lysosomal exocytosis assay, a human monocytic suspension cell line (THP-1) was used. Cells in culture should be used between a density of […] and 1.2e6/mL on the day of the assay. For each 96-well assay plate to be used, pellet 11e6 THP-1 cells at 330×g for 5 min in a 50 mL conical tube, aspirate media and resuspend in 22 mLs of RPMI 1640/10% FBS media for a final cell concentration of 5e5/mL. Prior to addition of cells to the assay plate, perform a 7 pt dilution curve using a top dose of compound at 2 mM and use a 3-fold serial dilution, the 8th point is DMSO only. Final top dose of compound in the assay was 20 μM. 2 μL of each serial dilution was transferred to a new 96-well v-bottom assay plate. 198 μL of cells (1e5 total cells/well) was prepared as above in each well of the assay plate and incubated at 37° C./5% CO2/95% RH for 55 min. After the 55 min incubation, cells were pelleted for 5 min at 4 C at 400×g in a tabletop centrifuge. The media was separated from the cell pellets in the plate. The pellets were washed using 200 μL ice cold buffer (PBS Ca^++/Mg^++ containing 2% final BSA and 80 μM final Dynasore). Cells were pelleted again at 400×g-5 min in a 4° C. tabletop centrifuge. Buffer was separated from cells. Each well was suspended in 75 uL Lamp1-PE antibody buffer (PBS Ca^++/Mg^++ containing 2% final BSA with 80 uM final Dynasore and 1:800 final dilution of Lamp 1-PE labeled antibody). After a 45 min antibody incubation on ice, 25 μL of sytox green was added (I drop/mL buffer), and each well was mixed and incubated for an additional 15 min on ice. After the 15 min sytox green incubation, 100 μL of ice-cold buffer (PBS Ca^++/Mg^++ containing 2% final BSA and 80 uM final Dynasore) was added and cells were pelleted for 5 min at 400×g. The buffer was removed and each sample was resuspended in 100 uL of ice-cold buffer (PBS Ca^++/Mg^++ containing 2% final BSA and 80 μM final Dynasore). FACs gating strategy: FACS analyze for sytox green (A488) and Lamp1-PE (DsRed). First gate against FSC-A/SSC-A to find non-fragmented or ‘live’ THP-1 cells. Next gate against FITC-A/FSC-A to omit sytox green positive cells. Then gate for FSC-A/FSC-H to remove any doublet cells. The last gate was a histogram for PE. The statistics for ‘count’ and ‘geometric mean fluorescence intensity’ (gWFI) for PE were repoted on the last gate.
Compounds having an activity designated as “++++” provided an exocytosis readout of ≤0.50 μM; compounds having an activity designated as “+++” provided an exocytosis readout of 0.51-1.00 μM; compounds having an activity designated as “++” provided an exocytosis readout of 1.01-5.00 μM; and compounds having an activity designated as “+” provided an exocytosis readout of ≥5.01 μM

Row | Structure (SMILES) | pEC50 [1] | pEC50 [2]
1 | CC1(C)Cc2cc(S(=O)(=O)N3CC4(CCCC4)c4ccccc43)ccc2O1 [Compound I-2, 1′-[(2,2-dimethyl-2,3-dihydro-1-benzofuran-5-yl)sulfonyl]-1′,2′-dihydrospiro[cyclopentane-1,3′-indole]] | 5.10 to 5.70 | ≤ 5.30
2 | CC1(C)COc2ccc(S(=O)(=O)N3CC4(CCCC4)c4ccccc43)cc21 [Compound I-5, 1′-[(3,3-dimethyl-2,3-dihydro-1-benzofuran-5-yl)sulfonyl]-1′,2′-dihydrospiro[cyclopentane-1,3′-indole]] | ≥ 5.70 | ≤ 5.30
3 | O=S(=O)(c1ccc(OC(F)(F)F)cc1)N1CC2(CCCC2)c2ccccc21 [Compound I-31, 1′-[4-(trifluoromethoxy)benzenesulfonyl]-1′,2′-dihydrospiro[cyclopentane-1,3′-indole]] | 5.10 to 5.70 | ≤ 5.30
4 | O=S(=O)(c1ccc2c(c1)CCC(C(F)F)O2)N1CC2(CCCC2)c2ccccc21 (stereo not shown) [Compound I-35, 1′-{[2-(difluoromethyl)-3,4-dihydro-2H-1-benzopyran-6-yl]sulfonyl}-1′,2′-dihydrospiro[cyclopentane-1,3′-indole]] | 5.10 to 5.70 | ≤ 5.30
5 | O=S(=O)(c1ccc(C2CC2(F)F)cc1)N1CC2(CCCC2)c2ccccc21 (stereo not shown) [Compound I-48, 1′-[4-(2,2-difluorocyclopropyl)benzenesulfonyl]-1′,2′-dihydrospiro[cyclopentane-1,3′-indole]] | 5.10 to 5.70 | ≤ 5.30
6 | CC1(C)Oc2ccc(S(=O)(=O)N3CC4(CCCC4)c4ccccc43)cc2O1 [Compound I-57, 1′-[(2,2-dimethyl-2H-1,3-benzodioxol-5-yl)sulfony1]-1′,2′-dihydrospiro[cyclopentane-1,3′-indole]] | 5.10 to 5.70 | ≤ 5.30
7 | O=S(=O)(c1ccc2c(c1)CCC2)N1CC2(CCCC2)c2ccccc21 [Compound I-67, 1′-((2,3-dihydro-1H-inden-5-yl)sulfonyl)spiro[cyclopentane-1,3′-indoline]] | 5.10 to 5.70 | ≤ 5.30
8 | CN(C)S(=O)(=O)c1ccc(S(=O)(=O)N2CC3(CCCC3)c3ccccc32)cc1 [Compound I-68, 4-({1′,2′-dihydrospiro[cyclopentane-1,3′-indol]-1′-yl}sulfonyl)-N,N-dimethylbenzene-1-sulfonamide] | ≥ 5.70 | ≥ 6.30
9 | CN(C)S(=O)(=O)c1ccc(S(=O)(=O)N2CC3(CCN(C(=O)C(C)(C)C)C3)c3ccccc32)cc1 (stereo not shown) [Compound I-73, 4-{[1′-(2,2-dimethylpropanoyl)-1,2-dihydrospiro[indole-3,3′-pyrrolidin]-1-yl]sulfonyl}-N,N-dimethylbenzene-1-sulfonamide] | 5.10 to 5.70 | ≤ 5.30
10 | Cc1cccc(S(=O)(=O)N2CC3(CCCC3)c3ccccc32)c1 [Compound I-74, 1′-(3-methylbenzenesulfonyl)-1′,2′-dihydrospiro[cyclopentane-1,3′-indole]] | 5.10 to 5.70 | ≤ 5.30
11 | Cc1ccc2c(c1)N(S(=O)(=O)c1ccc(S(=O)(=O)N(C)C)cc1)CC21CCCC1 [Compound I-79, N,N-dimethyl-4-((6′-methylspiro[cyclopentane-1,3′-indolin]-1′-yl)sulfonyl)benzenesulfonamide] | ≥ 5.70 | ≥ 6.30
12 | O=C(OCc1ccccc1)N1CCC2(CC1)CN(S(=O)(=O)Cc1ccccc1)c1ccccc12 [Compound I-80, benzyl 1-(benzylsulfonyl)spiro[indoline-3,4′-piperidine]-1′-carboxylate] | ≥ 5.70 | ≤ 5.30
13 | O=C(OCc1ccccc1)N1CCC2(CC1)CN(S(=O)(=O)c1ccc(C(F)F)cc1)c1ccccc12 [Compound I-81] | ≥ 5.70 | ≥ 6.30
14 | CN1CCC2(CC1)CN(S(=O)(=O)c1ccc(C(F)F)cc1)c1ccccc12 [Compound I-83] | ≤ 5.00 | ≤ 5.30
15 | O=C(C1CCC2(CC1)CN(S(=O)(=O)c1ccc(C(F)F)cc1)c1ccccc12)N1CCC2(CCOC2)C1 (stereo not shown) [Compound I-240, (1′-((4-(difluoromethyl)phenyl)sulfonyl)spiro[cyclohexane-1,3′-indolin]-4-y1)(2-oxa-7-azaspiro[4.4]nonan-7-yl)methanone] |  | ≤ 5.30
16 | CCn1cc(CNC(=O)C2CCC3(CC2)CN(S(=O)(=O)c2ccc(C(F)F)cc2)c2ccccc23)cn1 (stereo not shown) [Compound I-241, 1′-((4-(difluoromethyl)phenyl)sulfonyl)-N-((1-ethyl-1H-pyrazol-4-yl)methyl)spiro[cyclohexane-1,3′-indoline]-4-carboxamide] |  | ≤ 5.30
17 | CN(Cc1ccon1)C(=O)C1CCC2(CC1)CN(S(=O)(=O)c1ccc(C(F)F)cc1)c1ccccc12 (stereo not shown) [Compound I-242, 1′-((4-(difluoromethyl)phenyl)sulfonyl)-N-(isoxazol-3-ylmethyl)-N-methylspiro[cyclohexane-1,3′-indoline]-4-carboxamide] |  | ≤ 5.30
18 | CN(C(=O)C1CCC2(CC1)CN(S(=O)(=O)c1ccc(C(F)F)cc1)c1ccccc12)c1ccnn1C (stereo not shown) [Compound I-243, 1′-((4-(difluoromethyl)phenyl)sulfonyl)-N-methyl-N-(1-methyl-1H-pyrazol-5-yl)spiro[cyclohexane-1,3′-indoline]-4-carboxamide] |  | ≤ 5.30
19 | O=C(C1CCC2(CC1)CN(S(=O)(=O)c1ccc(C(F)F)cc1)c1ccccc12)N1CCC2(COC2)C1 (stereo not shown) [Compound I-244, (1′-((4-(difluoromethyl)phenyl)sulfonyl)spiro[cyclohexane-1,3′-indolin]-4-yl)(2-oxa-6-azaspiro[3.4]octan-6-yl)methanone] |  | ≤ 5.30
20 | CN(C(=O)C1CCC2(CC1)CN(S(=O)(=O)c1ccc(C(F)F)cc1)c1ccccc12)c1nccn1C (stereo not shown) [Compound I-245, 1′-((4-(difluoromethyl)phenyl)sulfonyl)-N-methyl-N-(1-methyl-1H-imidazol-2-yl)spiro[cyclohexane-1,3′-indoline]-4-carboxamide] |  | ≤ 5.30
21 | O=C(CCC(F)(F)F)N1CCC2(CC1)CN(S(=O)(=O)c1ccc(C(F)F)cc1)c1ccccc12 [Compound I-251, 1-(1-((4-(difluoromethyl)phenyl)sulfonyl)spiro[indoline-3,4′-piperidin]-1′-y1)-4,4,4-trifluorobutan-1-one] |  | 5.30 to 6.00
22 | O=C(CCC1CCCO1)N1CCC2(CC1)CN(S(=O)(=O)c1ccc(C(F)F)cc1)c1ccccc12 (stereo not shown) [Compound I-252, 1-(1-((4-(difluoromethyl)phenyl)sulfonyl)spiro[indoline-3,4′-piperidin]-1′-yl)-3-(tetrahydrofuran-2-yl)propan-1-one] |  | ≤ 5.30
23 | O=C(CCC1CCOC1)N1CCC2(CC1)CN(S(=O)(=O)c1ccc(C(F)F)cc1)c1ccccc12 (stereo not shown) [Compound I-253, 1-(1-((4-(difluoromethyl)phenyl)sulfonyl)spiro[indoline-3,4′-piperidin]-1′-y1)-3-(tetrahydrofuran-3-yl)propan-1-one] |  | ≤ 5.30
24 | O=C(COC1CCOC1)N1CCC2(CC1)CN(S(=O)(=O)c1ccc(C(F)F)cc1)c1ccccc12 (stereo not shown) [Compound I-254, 1-(1-((4-(difluoromethyl)phenyl)sulfonyl)spiro[indoline-3,4′-piperidin]-1′-yl)-2-((tetrahydrofuran-3-yl)oxy)ethan-1-one] |  | ≤ 5.30
25 | O=C(CC1CCOC1)N1CCC2(CC1)CN(S(=O)(=O)c1ccc(C(F)F)cc1)c1ccccc12 (stereo not shown) [Compound I-255, 1-(1-((4-(difluoromethyl)phenyl)sulfonyl)spiro[indoline-3,4′-piperidin]-1′-yl)-2-(tetrahydrofuran-3-yl)ethan-1-one] |  | ≤ 5.30
26 | O=C(CC1CCCO1)N1CCC2(CC1)CN(S(=O)(=O)c1ccc(C(F)F)cc1)c1ccccc12 (stereo not shown) [Compound I-256, 1-(1-((4-(difluoromethyl)phenyl)sulfonyl)spiro[indoline-3,4′-piperidin]-1′-y1)-2-(tetrahydrofuran-2-yl)ethan-1-one] |  | ≤ 5.30
